Experimental data published in patent US7569549B2, “Isostructural pseudopolymorphs of 9-deoxo-9a-aza-9a-methyl-9a-homoerythromycin A” (Pliva Hrvatska D.O.O., priority 2002, dated 2009).

Experiments:
[1] = Dissolution profiles by USP Method 2 (PharmaTest Dissolution Tester), dissolved content by HPLC; format: physicochemical
Method: The comparative dissolution profiles were determined by USP Method 2, PharmaTest Dissolution Tester, PTW SII; the content of dissolved 9-deoxo-9a-aza-9a-methyl-9a-homoerythromycin A was measured by HPLC. The data thus obtained are set forth in Table 6 below, and plotted in FIGS. 17 and 18.
The comparative dissolution profiles were determined by USP Method 2, PharmaTest Dissolution Tester, PTW SII; the content of dissolved 9-deoxo-9a-aza-9a-methyl-9a-homoerythromycin A was measured by HPLC. The data thus obtained are set forth in Table 9 below, and plotted in FIG. 22.

[2] = Intrinsic dissolution rate (Intrinsic Dissolution Tester, Van Kel Type); format: physicochemical; settings: pH 3 and pH 6, 37° C.
Method: In addition to the above data, the intrinsic dissolution rates (IDR's) for the new pseudopolymorph of the invention and the commercial dihydrate, at pH 3 and pH 6 and 37° C., were determined by Intrinsic Dissolution Tester, Van Kel Type.

in vivo = settings: rat, 50 mg/kg
Excerpt: 32 animals were studied using a cross-over experimental design experiment. A non-compartmental analysis was used to determine the concentrations of the respective materials in whole blood and plasma as a function of time.

[3] = Solid state stability by X-ray powder diffraction at varied humidity and temperature; format: physicochemical; settings: 5% RH to 75% RH; 30° C. to 75° C.
Method: The solid state stability of the 9-deoxo-9a-aza-9a-methyl-9a-homoerythromycin A pseudopolymorph Ia (x=1, y=0) was determined by measuring the solid state x-ray powder diffraction pattern for this material at four different percent relative humidities (% RH), ranging from 5% RH to 75% RH, and at five different temperatures, increasing from 30° C. to 75° C. using Philips X'PertPRO powder X-ray diffractometer equipped with Anton Paar TTK-100 humidity camera used for non-ambient data collection.

[4] = Similarity factors (f2) calculated for the dissolution profiles; format: physicochemical
Method: In order to further assess the data from Table 6, similarity factors (f2) were calculated according to the method described in Note for Guidance on the Investigation of Bioavailability and Bioequivalence (EMEA, December 1998, London) for the dissolution profiles of the two species (9-deoxo-9a-aza-9a-methyl-9a-homoerythromycin A, pseudopolymorph Ia of the present invention, and commercial 9-deoxo-9a-aza-9a-methyl-9a-homoerythromycin A dihydrate).

Q: With CC[C@H]1OC(=O)[C@H](C)[C@@H](O[C@H]2C[C@@](C)(OC)[C@@H](O)[C@H](C)O2)C(C)[C@@H](O[C@@H]2O[C@H](C)CC(N(C)C)[C@H]2O)[C@](C)(O)C[C@@H](C)CN(C)[C@H](C)[C@@H](O)[C@]1(C)O (stereo partly shown) [9-deoxo-9a-aza-9a-methyl-9a-homoerythromycin A dihydrate, reference compound] as the compound, how does the Percent dissolved ([1]; pH 3, 37° C., 5 minutes) read?
A: Its Percent dissolved is 3.9%.

Q: And the Percent dissolved ([1]; pH 3, 37° C., 10 minutes)?
A: Its Percent dissolved is 8.1%.

Q: What about the Percent dissolved ([1]; pH 3, 37° C., 20 minutes) of the same compound?
A: The Percent dissolved was 14.6%.

Q: And the Percent dissolved ([1]; pH 3, 37° C., 45 minutes)?
A: The Percent dissolved was 26.7%.

Q: What about the Percent dissolved ([1]; pH 3, 37° C., 60 minutes) of the same compound?
A: Its Percent dissolved is 33.3%.

Q: And the Percent dissolved ([1]; pH 3, 37° C., 90 minutes)?
A: The Percent dissolved was 39.1%.

Q: What about the Percent dissolved ([1]; pH 6, 37° C., 5 minutes) of the same compound?
A: The Percent dissolved was 14.5%.

Q: And the Percent dissolved ([1]; pH 6, 37° C., 10 minutes)?
A: Its Percent dissolved is 27.3%.

Q: What about the Percent dissolved ([1]; pH 6, 37° C., 20 minutes) of the same compound?
A: Its Percent dissolved is 44.2%.

Q: And the Percent dissolved ([1]; pH 6, 37° C., 45 minutes)?
A: The Percent dissolved was 69.1%.

Q: And the Percent dissolved ([1]; pH 6, 37° C., 60 minutes)?
A: The Percent dissolved was 73.7%.

Q: What about the Percent dissolved ([1]; pH 6, 37° C., 90 minutes) of the same compound?
A: The Percent dissolved was 75.0%.

Q: What about the “Intrinsic dissolution rate (IDR)” value [2] of the same compound?
A: The value was “about 1.8 mg min^−1 cm^−2”.

Q: What about the “AUC(0-48)” value (in vivo) of the same compound?
A: Its value is 31696.6 nghr/ml.

Q: What about the Tmax (in vivo; po) of the same compound?
A: The Tmax was 2 h.

Q: Which results are given for CC[C@H]1OC(=O)[C@H](C)[C@@H](O[C@H]2C[C@@](C)(OC)[C@@H](O)[C@H](C)O2)[C@H](C)[C@@H](O[C@@H]2O[C@H](C)C[C@H](N(C)C)[C@H]2O)[C@](C)(O)C[C@@H](C)CN(C)[C@H](C)[C@@H](O)[C@]1(C)O [Pseudopolymorph Ia, 9-deoxo-9a-aza-9a-methyl-9a-homoerythromycin A]?
A: Solid state stability (phase transitions by x-ray powder diffraction) [3]: no phase-transitions occur; Percent dissolved ([1]; pH 3, 37° C., 5 minutes, listed as Ia (Example 19, Batch 1)): 25.1%; Percent dissolved ([1]; pH 3, 37° C., 5 minutes, listed as Ia (Example 19, Batch 3)): 21.1%; Percent dissolved ([1]; pH 3, 37° C., 5 minutes, listed as Ia (Example 19 Batch 2)): 18.5%; Percent dissolved ([1]; pH 3, 37° C., 10 minutes, listed as Ia (Example 19, Batch 1)): 37.1%; Percent dissolved ([1]; pH 3, 37° C., 10 minutes, listed as Ia (Example 19, Batch 3)): 32.4%; Percent dissolved ([1]; pH 3, 37° C., 10 minutes, listed as Ia (Example 19 Batch 2)): 30.7%; Percent dissolved ([1]; pH 3, 37° C., 20 minutes, listed as Ia (Example 19, Batch 1)): 45.8%; Percent dissolved ([1]; pH 3, 37° C., 20 minutes, listed as Ia (Example 19, Batch 3)): 43.3%; Percent dissolved ([1]; pH 3, 37° C., 20 minutes, listed as Ia (Example 19 Batch 2)): 45.1%; Percent dissolved ([1]; pH 3, 37° C., 45 minutes, listed as Ia (Example 19, Batch 1)): 55.5%; Percent dissolved ([1]; pH 3, 37° C., 45 minutes, listed as Ia (Example 19, Batch 3)): 56%; Percent dissolved ([1]; pH 3, 37° C., 45 minutes, listed as Ia (Example 19 Batch 2)): 60.9%; Percent dissolved ([1]; pH 3, 37° C., 60 minutes, listed as Ia (Example 19, Batch 1)): 58.3%; Percent dissolved ([1]; pH 3, 37° C., 60 minutes, listed as Ia (Example 19, Batch 3)): 61.1%; Percent dissolved ([1]; pH 3, 37° C., 60 minutes, listed as Ia (Example 19 Batch 2)): 64.8%; Percent dissolved ([1]; pH 3, 37° C., 90 minutes, listed as Ia (Example 19, Batch 1)): 62.9%; Percent dissolved ([1]; pH 3, 37° C., 90 minutes, listed as Ia (Example 19, Batch 3)): 64.7%; Percent dissolved ([1]; pH 3, 37° C., 90 minutes, listed as Ia (Example 19 Batch 2)): 70%; Percent dissolved ([1]; pH 6, 37° C., 5 minutes, listed as Ia (Example 19, Batch 1)): 67.0%; Percent dissolved ([1]; pH 6, 37° C., 5 minutes, listed as Ia (Example 19, Batch 3)): 70.2%; Percent dissolved ([1]; pH 6, 37° C., 5 minutes, listed as Ia (Example 19 Batch 2)): 71.7%; Percent dissolved ([1]; pH 6, 37° C., 10 minutes, listed as Ia (Example 19, Batch 1)): 73.2%; Percent dissolved ([1]; pH 6, 37° C., 10 minutes, listed as Ia (Example 19, Batch 3)): 77.3%; Percent dissolved ([1]; pH 6, 37° C., 10 minutes, listed as Ia (Example 19 Batch 2)): 81.4%; Percent dissolved ([1]; pH 6, 37° C., 20 minutes, listed as Ia (Example 19, Batch 1)): 76.7%; Percent dissolved ([1]; pH 6, 37° C., 20 minutes, listed as Ia (Example 19, Batch 3)): 77%; Percent dissolved ([1]; pH 6, 37° C., 20 minutes, listed as Ia (Example 19 Batch 2)): 81.6%; Percent dissolved ([1]; pH 6, 37° C., 45 minutes, listed as Ia (Example 19, Batch 1)): 76.7%; Percent dissolved ([1]; pH 6, 37° C., 45 minutes, listed as Ia (Example 19, Batch 3)): 77.6%; Percent dissolved ([1]; pH 6, 37° C., 45 minutes, listed as Ia (Example 19 Batch 2)): 80.4%; Percent dissolved ([1]; pH 6, 37° C., 60 minutes, listed as Ia (Example 19, Batch 1)): 74.5%; Percent dissolved ([1]; pH 6, 37° C., 60 minutes, listed as Ia (Example 19, Batch 3)): 78%; Percent dissolved ([1]; pH 6, 37° C., 60 minutes, listed as Ia (Example 19 Batch 2)): 79.9%; Percent dissolved ([1]; pH 6, 37° C., 90 minutes, listed as Ia (Example 19, Batch 1)): 75.8%; Percent dissolved ([1]; pH 6, 37° C., 90 minutes, listed as Ia (Example 19, Batch 3)): 79.2%; Percent dissolved ([1]; pH 6, 37° C., 90 minutes, listed as Ia (Example 19 Batch 2)): 80%; Intrinsic dissolution rate (IDR) [2]: 2.5-2.8 mg min^−1 cm^−2; IDR higher than the IDR of the dihydrate ([2]; relative to dihydrate): 40 to 50%; Similarity factor (f2) ([4]; Batch 1 vs. Batch 2 of Example 19, pH = 3): 61.3; Similarity factor (f2) ([4]; Batch 1 vs. Batch 2 of Example 19, pH = 6): 63.1; Similarity factor (f2) ([4]; Batch 1 vs. Batch 3 of Example 19, pH = 3): 74.7; Similarity factor (f2) ([4]; Batch 1 vs. Batch 3 of Example 19, pH = 6): 75.4; Similarity factor (f2) ([4]; Batch 2 vs. Batch 3 of Example 19, pH = 3): 71.3; Similarity factor (f2) ([4]; Batch 2 vs. Batch 3 of Example 19, pH = 6): 75.3; Similarity factor (f2) ([4]; Dihydrate vs. Batch 1 of Example 19, pH = 3): 28.6; Similarity factor (f2) ([4]; Dihydrate vs. Batch 1 of Example 19, pH = 6): 25; Similarity factor (f2) ([4]; Dihydrate vs. Batch 2 of Example 19, pH = 3): 27.5; Similarity factor (f2) ([4]; Dihydrate vs. Batch 2 of Example 19, pH = 6): 22.2; Similarity factor (f2) ([4]; Dihydrate vs. Batch 3 of Example 19, pH = 3): 29.4; Similarity factor (f2) ([4]; Dihydrate vs. Batch 3 of Example 19, pH = 6): 23.7; AUC(0-12) higher relative to the commercial dihydrate (in vivo): approximately 20%; AUC(0-48) (in vivo): 35659.0 nghr/ml; Tmax (in vivo): 2 h

Q: Which Percent dissolved ([1]; pH 6, 37° C., 5 minutes, listed as Ik (Example 6)) does the source give for CC[C@H]1OC(=O)[C@H](C)[C@@H](O[C@H]2C[C@@](C)(OC)[C@@H](O)[C@H](C)O2)[C@H](C)[C@@H](O[C@@H]2O[C@H](C)C[C@H](N(C)C)[C@H]2O)[C@](C)(O)C[C@@H](C)CN(C)[C@H](C)[C@@H](O)[C@]1(C)O [Pseudopolymorph Ik, 9-deoxo-9a-aza-9a-methyl-9a-homoerythromycin A] here?
A: Its Percent dissolved is 99.8%.

Q: What about the Percent dissolved ([1]; pH 6, 37° C., 10 minutes, listed as Ik (Example 6)) of the same compound?
A: Its Percent dissolved is 99.9%.

Q: What about the Percent dissolved ([1]; pH 6, 37° C., 20 minutes, listed as Ik (Example 6)) of the same compound?
A: The Percent dissolved was 97.1%.

Q: And the Percent dissolved ([1]; pH 6, 37° C., 45 minutes, listed as Ik (Example 6))?
A: The Percent dissolved was 97.6%.
